According to paper PMC6220849, “Mechanistic and structural studies of KDM‐catalysed demethylation of histone 1 isotype 4 at lysine 26” (Febs Letters, 2018):
Square brackets hold non-standard residues; d marks the D form. Ends that are not written are not given here. Lys(Me2) = CN(C)CCCC[C@H](N)C(=O)O; Lys(Me) = CNCCCC[C@H](N)C(=O)O

Legend:
Assay type in all cases: biochemical, human
KDM7B (PHF8; KDM7B1–447) = test: MALDI-TOF MS demethylation activity assay, KDM7B (PHF8); parameters: key to demethylation activity on methylated H1.4 peptide: 🟢: Indicates that clear demethylation activity was observed; 🟡: Indicates that low level demethylation activity was observed (<10% conversion after 1 h); 🔴: Indicates no activity under the stated conditions (1 μM KDM, 10 μM peptide); 🟡*: *Indicates demethylation activity was only observed with 5 μM KDM; settings: for demethylation at increased enzyme concentration (result in words): MALDI-TOF MS time course, KDM7B 5 μM, peptide 10 μM, 37 °C; for demethylation activity on methylated H1.4 peptide: peptide as substrate, MALDI-TOF MS, 1 μM KDM (* = only with 5 μM KDM), 10 μM peptide, 50 mM HEPES pH 7.5, Fe(II) 10 μM, ascorbate 100 μM, 2OG 200 μM, 1 h at 37 °C
Description: (§1) Recombinant proteins (1 μM) were incubated with peptides (10 μM, sequences are given in Table S1) in 50 mM HEPES, pH 7.5 with addition of Fe(II) ammonium sulfate (10 μM), sodium ascorbate (100 μM) and 2‐oxoglutaric acid (200 μM). Reactions with KDM3A and KDM7A also contained 1 mM tris(2‐carboxyethyl)phosphine hydrochloride. No enzyme reactions were included as negative controls. Reactions were incubated for 1 h at 37 °C before being quenched with 1 : 1 (v/v) methanol. Analysis was carried out by MALDI‐TOF MS (Bruker, Billerica, MA, USA), with demethylation observed as mass shifts of 14 Da.
(§2) Given the activity observed with KDM4E and KDM7A, we decided to investigate the intra‐subfamily conservation of this demethylation activity. The demethylation activity of the other subfamily members (KDM4A‐D and KDM7B) was therefore screened. […] Note that as with H3K9, demethylation of the monomethylated H1.4K26 peptide was only observed with KDM4E, under the stated conditions 24.
(§3) N ^ε‐Trimethylated H3K4 binds to the plant homeobox domain of KDM7B, targeting the N ^ε‐dimethyllysine at H3K9 to the catalytic domain, and thus promoting demethylation 29, 44. To test whether similar targeting may occur with H1.4, promoting activity at H1.4K26, an H1.4 peptide was synthesised containing di‐N ^ε‐methyllysine at K26 and tri‐N ^ε‐methyllysine at K21 (i.e. at the equivalent position in the sequence to K4 in the H3 peptide, Fig. 1B, Table S1). Monomethylation at H1.4K21 has previously been observed by proteomic mass spectrometry 45. With the aim of enhancing activity, the enzyme concentration was increased from 1 μM to 5 μM, and time course analyses were conducted with both KDM7A and KDM7B, both with the new peptide (H1.4(18–32)K21me3K26me2) and the H1.4 peptides methylated only at K26 (Fig. 2B). […] Thus, it appears unlikely that N ^ε‐trimethylation at H1.4K21 promotes demethylation at H1.4K26 by KDM7B.

KDM4A (KDM4A1–359) = test: MALDI-TOF MS demethylation activity assay, KDM4A; parameters: key: 🟢: Indicates that clear demethylation activity was observed; 🟡: Indicates that low level demethylation activity was observed (<10% conversion after 1 h); 🔴: Indicates no activity under the stated conditions (1 μM KDM, 10 μM peptide); 🟡*: *Indicates demethylation activity was only observed with 5 μM KDM; settings: peptide as substrate, 1 μM KDM, 10 μM peptide, 50 mM HEPES pH 7.5, Fe(II) 10 μM, ascorbate 100 μM, 2OG 200 μM, 1 h at 37 °C
Description: as §1, §2

KDM3A (KDM3A515–1317) = test: MALDI-TOF MS demethylation activity assay, KDM3A; parameters: key: 🟢: Indicates that clear demethylation activity was observed; 🟡: Indicates that low level demethylation activity was observed (<10% conversion after 1 h); 🔴: Indicates no activity under the stated conditions (1 μM KDM, 10 μM peptide); 🟡*: *Indicates demethylation activity was only observed with 5 μM KDM; settings: peptide as substrate, 1 μM KDM, 10 μM peptide, 50 mM HEPES pH 7.5, Fe(II) 10 μM, ascorbate 100 μM, 2OG 200 μM, 1 mM TCEP, 1 h at 37 °C
Description: as §1
(§4) The propensity of human JmjC KDMs to catalyse demethylation at H1.4K26 was investigated using recombinant forms of the catalytic domains of representatives of each human JmjC KDM subfamily (KDM2‐7) and fragment peptides (Table S1) 37. Three peptides with identical sequences, corresponding to residues 18–32 of histone H1.4 (H2N‐[…]‐CONH2), but containing either a N ^ε‐tri‐, di‐ or monomethyllysine at K26 were synthesised (Fig. 1B and Table S1). Activity assays monitoring JmjC KDM‐catalysed demethylation of the peptides were then carried out; samples were prepared containing each peptide, 2‐oxoglutarate (2OG), ferrous iron, ascorbate and individual representatives from each JmjC KDM subfamily (KDM2A 38, KDM3A 21, KDM4E 22, KDM5C 39, 40, KDM6B 41, KDM7A 42).

KDM4E (KDM4E1–337) = test: MALDI-TOF MS demethylation activity assay, KDM4E; parameters: key: 🟢: Indicates that clear demethylation activity was observed; 🟡: Indicates that low level demethylation activity was observed (<10% conversion after 1 h); 🔴: Indicates no activity under the stated conditions (1 μM KDM, 10 μM peptide); 🟡*: *Indicates demethylation activity was only observed with 5 μM KDM; settings: peptide as substrate, 1 μM KDM, 10 μM peptide, 50 mM HEPES pH 7.5, Fe(II) 10 μM, ascorbate 100 μM, 2OG 200 μM, 1 h at 37 °C
Description: as §1, §4

KDM5C (KDM5C1–765) = test: MALDI-TOF MS demethylation activity assay, KDM5C; parameters: key: 🟢: Indicates that clear demethylation activity was observed; 🟡: Indicates that low level demethylation activity was observed (<10% conversion after 1 h); 🔴: Indicates no activity under the stated conditions (1 μM KDM, 10 μM peptide); 🟡*: *Indicates demethylation activity was only observed with 5 μM KDM; settings: peptide as substrate, 1 μM KDM, 10 μM peptide, 50 mM HEPES pH 7.5, Fe(II) 10 μM, ascorbate 100 μM, 2OG 200 μM, 1 h at 37 °C
Description: as §1, §4

KDM4D (KDM4D1–359) = test: MALDI-TOF MS demethylation activity assay, KDM4D; parameters: key: 🟢: Indicates that clear demethylation activity was observed; 🟡: Indicates that low level demethylation activity was observed (<10% conversion after 1 h); 🔴: Indicates no activity under the stated conditions (1 μM KDM, 10 μM peptide); 🟡*: *Indicates demethylation activity was only observed with 5 μM KDM; settings: peptide as substrate, 1 μM KDM, 10 μM peptide, 50 mM HEPES pH 7.5, Fe(II) 10 μM, ascorbate 100 μM, 2OG 200 μM, 1 h at 37 °C
Description: as §1, §2

KDM4C (KDM4C1–359) = test: MALDI-TOF MS demethylation activity assay, KDM4C; parameters: key: 🟢: Indicates that clear demethylation activity was observed; 🟡: Indicates that low level demethylation activity was observed (<10% conversion after 1 h); 🔴: Indicates no activity under the stated conditions (1 μM KDM, 10 μM peptide); 🟡*: *Indicates demethylation activity was only observed with 5 μM KDM; settings: peptide as substrate, 1 μM KDM, 10 μM peptide, 50 mM HEPES pH 7.5, Fe(II) 10 μM, ascorbate 100 μM, 2OG 200 μM, 1 h at 37 °C
Description: as §1, §2

KDM6B (KDM6B1141–1590) = test: MALDI-TOF MS demethylation activity assay, KDM6B; parameters: key: 🟢: Indicates that clear demethylation activity was observed; 🟡: Indicates that low level demethylation activity was observed (<10% conversion after 1 h); 🔴: Indicates no activity under the stated conditions (1 μM KDM, 10 μM peptide); 🟡*: *Indicates demethylation activity was only observed with 5 μM KDM; settings: peptide as substrate, 1 μM KDM, 10 μM peptide, 50 mM HEPES pH 7.5, Fe(II) 10 μM, ascorbate 100 μM, 2OG 200 μM, 1 h at 37 °C
Description: as §1, §4

KDM7A (KDM7A38–480) = test: MALDI-TOF MS demethylation activity assay, KDM7A; settings: for demethylation activity on methylated H1.4 peptide: peptide as substrate, MALDI-TOF MS, 1 μM KDM, 10 μM peptide, 50 mM HEPES pH 7.5, Fe(II) 10 μM, ascorbate 100 μM, 2OG 200 μM, 1 mM TCEP, 1 h at 37 °C
Description: as §1, §4, §3

KDM2A (KDM2A1–557) = test: MALDI-TOF MS demethylation activity assay, KDM2A; parameters: key: 🟢: Indicates that clear demethylation activity was observed; 🟡: Indicates that low level demethylation activity was observed (<10% conversion after 1 h); 🔴: Indicates no activity under the stated conditions (1 μM KDM, 10 μM peptide); 🟡*: *Indicates demethylation activity was only observed with 5 μM KDM; settings: peptide as substrate, 1 μM KDM, 10 μM peptide, 50 mM HEPES pH 7.5, Fe(II) 10 μM, ascorbate 100 μM, 2OG 200 μM, 1 h at 37 °C
Description: as §1, §4

KDM4B (KDM4B1–359) = test: MALDI-TOF MS demethylation activity assay, KDM4B; parameters: key: 🟢: Indicates that clear demethylation activity was observed; 🟡: Indicates that low level demethylation activity was observed (<10% conversion after 1 h); 🔴: Indicates no activity under the stated conditions (1 μM KDM, 10 μM peptide); 🟡*: *Indicates demethylation activity was only observed with 5 μM KDM; settings: peptide as substrate, 1 μM KDM, 10 μM peptide, 50 mM HEPES pH 7.5, Fe(II) 10 μM, ascorbate 100 μM, 2OG 200 μM, 1 h at 37 °C
Description: as §1, §2

Substance | demethylation at increased enzyme concentration (result in words) (KDM7B (PHF8; KDM7B1–447)) | demethylation at increased enzyme concentration (result in words) (KDM7B (PHF8; KDM7B1–447); listed as H1.4K26me2) | demethylation activity on methylated H1.4 peptide (KDM7B (PHF8; KDM7B1–447)) | demethylation activity on methylated H1.4 peptide (KDM4A (KDM4A1–359)) | demethylation activity on methylated H1.4 peptide (KDM3A (KDM3A515–1317)) | demethylation activity on methylated H1.4 peptide (KDM4E (KDM4E1–337)) | demethylation activity on methylated H1.4 peptide (KDM5C (KDM5C1–765)) | demethylation activity on methylated H1.4 peptide (KDM4D (KDM4D1–359)) | demethylation activity on methylated H1.4 peptide (KDM4C (KDM4C1–359)) | demethylation activity on methylated H1.4 peptide (KDM6B (KDM6B1141–1590)) | demethylation at increased enzyme concentration (result in words) (KDM7A (KDM7A38–480); MALDI-TOF MS time course, KDM7A 5 μM, peptide 10 μM, 37 °C) | demethylation activity on methylated H1.4 peptide (KDM7A (KDM7A38–480)) | demethylation activity on methylated H1.4 peptide (KDM2A (KDM2A1–557)) | demethylation activity on methylated H1.4 peptide (KDM4B (KDM4B1–359))
TPVKKKAR[Lys(Me2)]SAGAAK [H1.4(18–32)K26me2, peptide of residues 18–32 of histone H1.4 with N ε-dimethyllysine at K26] | demethylation of H1.4(18-32)K26me2 is observed | clear evidence for demethylation | 🟡* | 🟢 | 🔴 | 🟢 | 🔴 | 🟢 | 🟢 | 🔴 | clear evidence for demethylation | 🟡 (Indicates that low level demethylation activity was observed (<10% conversion after 1 h)) | 🔴 | 🟢
TPVKKKAR[Lys(Me)]SAGAAK [H1.4(18–32)K26me1, peptide of residues 18–32 of histone H1.4 with N ε-monomethyllysine at K26] |  |  | 🟡* | 🔴 | 🔴 |  | 🔴 | 🔴 | 🔴 | 🔴 |  | 🟡 (Indicates that low level demethylation activity was observed (<10% conversion after 1 h)) | 🔴 | 🔴
